In patent US8664221B2 (Santen Pharmaceutical Co., Ltd., priority 2008, dated 2014):

Tested on: IL-6 production induced by lipopolysaccharide (LPS) in human corneal epithelial cells (HCE-T)
Assay: Inhibition of LPS-induced IL-6 production in human corneal epithelial cells (GR agonist activity)
Format: cell-based
Conditions: Corneal epithelial cell, 10 μL of 100 μM test compound solution per well, 4 hours incubation, efficacy relative to DEX
Method: In order to evaluate a GR agonist activity of the present compound, the inhibitory effects on the IL-6 production induced by lipopolysaccharide (LPS) in human corneal epithelial cells. IL-6 levels in the conditioned medium were measured using the HTRF human IL-6 Kit (boehringer-Ingelheim, Cat No. 62IL6PEB), and the procedure was carried out according to the protocol attached to the kit. Hereinafter, the specific method will be described.
LPS solution: After LPS was dissolved in phosphate buffer solution (hereinafter referred to as PBS(−)), the resulting solution was diluted with 10% FBS-DMEM/F12 medium, whereby a 1 μg/mL LPS solution was prepared.
After a test compound was dissolved in dimethylsulfoxide (hereinafter referred to as DMSO), the resulting solution was diluted with 10% FBS-DMEM/F12 medium, whereby a 100 μM test compound solution was prepared. A 100 μM DEX solution was prepared by the same method, and the inhibitory ratio of IL-6 production of DEX was evaluated to use for calculating efficacy (% DEX).
Used cell: SV40-immortalized human corneal epithelial cells (HCE-T) (RIKEN)
1) HCE-T cells were harvested, and seeded at 2.0×10^4 cells/0.1 mL/well in a 96-well plate.
2) After incubation overnight, the medium was removed and a 80 μL of new 10% FBS-DMEM/Ham's F12 medium was added into each well.
3) A 10 μL of test compounds solution was added into each well.
4) A 10 μL of LPS solution was added into each well.
5) As a negative control, a 10 μL of 10% FBS-DMEM/Ham's F12 medium was added into each well instead of a test compound solution and a LPS solution.
6) As a positive control, a 10 μL of 10% FBS-DMEM/Ham's F12 medium containing 1% DMSO was added into each well instead of a test compound solution.
7) After 4 hours incubation, supernatants were collected and IL-6 levels in the supernatants were quantitated using the HTRF human IL-6 Kit.
8) The inhibition ratio of IL-6 production (%) was calculated according to the following equation.
The inhibition ratio of IL-6 production (%) was calculated according to the following equation. The inhibition ratio of IL-6 production (%)=100×{1−(IL-6 level in each group−mean value of IL-6 level in negative control)/(mean value of IL-6 level in positive control−mean value of IL-6 level in negative control)} (%)
Furthermore, the inhibition ratio of IL-6 production (efficacy (% DEX)) was also calculated according to the following equation. Efficacy(% DEX)=100×{(mean value of IL-6 inhibition in compound-treated group)/(mean value of IL-6 inhibition in DEX-treated group)} (%) (Results and Discussion)

COc1cc(OS(C)(=O)=O)ccc1-c1ccc2c(c1COC(=O)c1ccc(C)s1)N(C)C(=O)C(C)(C)N2 [Compound No. 1-3, 7-(2-Methoxy-4-methylsulfonyloxyphenyl)-8-(5-methylthiophen-2-ylcarbonyloxymethyl)-1,3,3-trimethyl-3,4-dihydro-1H-quinoxalin-2-one]
Emax: 70%

COc1cc(OS(=O)(=O)Cc2ccccc2Cl)ccc1-c1ccc2c(c1COc1cc(F)ccc1C)N(C)C(=O)C(C)(C)N2 [Compound No. 1-14, 7-[4-(2-Chlorobenzylsulfonyloxy)-2-methoxyphenyl]-8-(5-fluoro-2-methylphenoxymethyl)-1,3,3-trimethyl-3,4-dihydro-1H-quinoxalin-2-one]
Emax: 86%

COc1cc(OS(=O)(=O)Cc2ccccc2C)ccc1-c1ccc2c(c1COc1cc(F)ccc1C)N(C)C(=O)C(C)(C)N2 [Compound No. 1-15, 8-(5-Fluoro-2-methylphenoxymethyl)-7-[2-methoxy-4-(2-methylbenzyl-sulfonyloxy)phenyl]-1,3,3-trimethyl-3,4-dihydro-IH-quinoxalin-2-one]
Emax: 88%

COc1cc(OS(=O)(=O)C2CCCCC2)ccc1-c1ccc2c(c1COc1cc(F)ccc1C)N(C)C(=O)C(C)(C)N2 [Compound No. 1-17, 7-(4-Cyclohexylsulfonyloxy-2-methoxyphenyl)-8-(5-fluoro-2-methylphenoxymethyl)-1,3,3-trimethyl-3,4-dihydro-1H-quinoxalin-2-one]
Emax: 83%

COc1cc(OS(=O)(=O)C2CC2)ccc1-c1ccc2c(c1COC(=O)c1ccc(C)s1)N(C)C(=O)C(C)(C)N2 [Compound No. 1-19, 7-(4-Cyclopropylsulfonyloxy-2-methoxyphenyl)-8-(5-methyl-thiophen-2-ylcarbonyloxymethyl)-1,3,3-trimethyl-3,4-dihydro-1H-quinoxalin-2-one]
Emax: 88%

COc1cc(OS(=O)(=O)CCC(F)(F)F)ccc1-c1ccc2c(c1COC(=O)c1ccc(C)s1)N(C)C(=O)C(C)(C)N2 [Compound No. 1-20, 7-[2-Methoxy-4-(3,3,3-trifluoropropylsulfonyloxy)phenyl]-8-(5-methylthiophen-2-ylcarbonyloxymethyl)-1,3,3-trimethyl-3,4-dihydro-1H-quinoxalin-2-one]
Emax: 74%

COc1cc(OS(=O)(=O)CC(C)C)ccc1-c1ccc2c(c1COC(=O)c1ccc(C)s1)N(C)C(=O)C(C)(C)N2 [Compound No. 1-21, 7-(4-Isobutylsulfonyloxy-2-methoxyphenyl)-8-(5-methylthiophen-2-ylcarbonyloxymethyl)-1,3,3-trimethyl-3,4-dihydro-1H-quinoxalin-2-one]
Emax: 71%

COc1cc(OS(=O)(=O)C2CCCC2)ccc1-c1ccc2c(c1COC(=O)c1ccc(C)s1)N(C)C(=O)C(C)(C)N2 [Compound No. 1-24, 7-(4-Cyclopentylsulfonyloxy-2-methoxyphenyl)-8-(5-methylthiophen-2-ylcarbonyloxymethyl)-1,3,3-trimethyl-3,4-dihydro-1H-quinoxalin-2-one]
Emax: 85%

COc1ccc([N+](=O)[O-])cc1OCc1c(-c2ccc(OS(=O)(=O)C3CC3)cc2OC)ccc2c1N(C)C(=O)C(C)(C)N2 [Compound No. 1-30, 7-(4-Cyclopropylsulfonyloxy-2-methoxyphenyl)-8-(2-methoxy-5-nitrophenoxymethyl)-1,3,3-trimethyl-3,4-dihydro-1H-quinoxalin-2-one]
Emax: 74%

CCCS(=O)(=O)Oc1ccc(-c2ccc3c(c2COc2cc([N+](=O)[O-])ccc2OC)N(C)C(=O)C(C)(C)N3)c(OC)c1 [Compound No. 1-31, 8-(2-Methoxy-5-nitrophenoxymethyl)-7-(2-methoxy-4-propyl-sulfonyloxyphenyl)-1,3,3-trimethyl-3,4-dihydro-1H-quinoxalin-2-one]
Emax: 76%

COc1cc(OS(=O)(=O)C(C)C)ccc1-c1ccc2c(c1COc1cc([N+](=O)[O-])ccc1C)N(C)C(=O)C(C)(C)N2 [Compound No. 1-35, 7-(4-Isopropylsulfonyloxy-2-methoxyphenyl)-8-(2-methyl-5-nitro-phenoxymethyl)-1,3,3-trimethyl-3,4-dihydro-1H-quinoxalin-2-one]
Emax: 79%

COc1cc(OS(C)(=O)=O)ccc1-c1ccc2c(c1COc1cc([N+](=O)[O-])ccc1C)N(C)C(=O)C(C)(C)N2 [Compound No. 1-36, 7-(2-Methoxy-4-methylsulfonyloxyphenyl)-8-(2-methyl-5-nitro-phenoxymethyl)-1,3,3-trimethyl-3,4-dihydro-1H-quinoxalin-2-one]
Emax: 72%

COc1cc(OS(=O)(=O)C2CCCC2)ccc1-c1ccc2c(c1COc1cc([N+](=O)[O-])ccc1C)N(C)C(=O)C(C)(C)N2 [Compound No. 1-37, 7-(4-Cyclopentylsulfonyloxy-2-methoxyphenyl)-8-(2-methyl-5-nitrophenoxymethyl)-1,3,3-trimethyl-3,4-dihydro-1H-quinoxalin-2-one]
Emax: 74%

CCCS(=O)(=O)Oc1ccc(-c2ccc3c(c2COC(=O)c2ccc(C)cc2)N(C)C(=O)C(C)(C)N3)c(OC)c1 [Compound No. 1-39, 7-(2-Methoxy-4-propylsulfonyloxyphenyl)-8-(4-methylbenzoyloxy-methyl)-1,3,3-trimethyl-3,4-dihydro-1H-quinoxalin-2-one]
Emax: 80%

COc1cc(OS(=O)(=O)CCCCl)ccc1-c1ccc2c(c1COc1cc(F)ccc1C)N(C)C(=O)C(C)(C)N2 [Compound No. 1-40, 7-[4-(3-Chloropropylsulfonyloxy)-2-methoxyphenyl]-8-(5-fluoro-2-methylphenoxymethyl)-1,3,3-trimethyl-3,4-dihydro-1H-quinoxalin-2-one]
Emax: 84%

COc1cc(OS(=O)(=O)CCl)ccc1-c1ccc2c(c1COc1cc(F)ccc1C)N(C)C(=O)C(C)(C)N2 [Compound No. 1-41, 7-(4-Chloromethylsulfonyloxy-2-methoxyphenyl)-8-(5-fluoro-2-methylphenoxymethyl)-1,3,3-trimethyl-3,4-dihydro-1H-quinoxalin-2-one]
Emax: 85%

COc1cc(OS(=O)(=O)CCCNCc2ccccc2)ccc1-c1ccc2c(c1COc1cc(F)ccc1C)N(C)C(=O)C(C)(C)N2 [Compound No. 3-1, 7-[4-(3-Benzylaminopropylsulfonyloxy)-2-methoxyphenyl]-8-(5-fluoro-2-methylphenoxymethyl)-1,3,3-trimethyl-3,4-dihydro-1H-quinoxalin-2-one]
Emax: 78%

CCCNCCCS(=O)(=O)Oc1ccc(-c2ccc3c(c2COc2cc(F)ccc2C)N(C)C(=O)C(C)(C)N3)c(OC)c1 [Compound No. 3-2, 8-(5-Fluoro-2-methylphenoxymethyl)-7-[2-methoxy-4-(3-propylaminopropyl-sulfonyloxy)phenyl]-1,3,3-trimethyl-3,4-dihydro-1H-quinoxalin-2-one]
Emax: 70%

COc1cc(OS(=O)(=O)CCCN2CCOCC2)ccc1-c1ccc2c(c1COc1cc(F)ccc1C)N(C)C(=O)C(C)(C)N2 [Compound No. 3-3, 8-(5-Fluoro-2-methylphenoxymethyl)-7-[2-methoxy-4-[3-(morpholin-4-yl)propylsulfonyloxy]phenyl]-1,3,3-trimethyl-3,4-dihydro-1H-quinoxalin-2-one]
Emax: 85%
